# Laboratory results from the NIST ThermoML archive (doi:10.1016/j.tca.2016.06.015).
# ± gives the expanded uncertainty stated by the source.
# Assay: molar heat capacity at constant pressure
# Conditions: Liquid, Flow calorimetry
compound,measurement,setting,value
CCCCCCCCCC [decane],molar heat capacity at constant pressure,"305.7 K, 4000 kPa",293.1 ± 18 J/K/mol
same,molar heat capacity at constant pressure,"316.2 K, 4000 kPa",305.91 ± 20 J/K/mol
same,molar heat capacity at constant pressure,"326.5 K, 4000 kPa",304.48 ± 20 J/K/mol
same,molar heat capacity at constant pressure,"335.3 K, 4000 kPa",315.87 ± 20 J/K/mol
same,molar heat capacity at constant pressure,"344 K, 4000 kPa",324.4 ± 21 J/K/mol
same,molar heat capacity at constant pressure,"354.1 K, 4000 kPa",322.98 ± 20 J/K/mol
same,molar heat capacity at constant pressure,"366.8 K, 4000 kPa",327.25 ± 21 J/K/mol
same,molar heat capacity at constant pressure,"377.6 K, 4000 kPa",340.05 ± 21 J/K/mol
same,molar heat capacity at constant pressure,"389.8 K, 4000 kPa",335.78 ± 21 J/K/mol
same,molar heat capacity at constant pressure,"401.5 K, 4000 kPa",344.32 ± 21 J/K/mol
same,molar heat capacity at constant pressure,"423.6 K, 4000 kPa",361.4 ± 23 J/K/mol
same,molar heat capacity at constant pressure,"432.6 K, 4000 kPa",367.09 ± 23 J/K/mol
same,molar heat capacity at constant pressure,"443.4 K, 4000 kPa",372.78 ± 24 J/K/mol
same,molar heat capacity at constant pressure,"453.9 K, 4000 kPa",377.05 ± 24 J/K/mol
same,molar heat capacity at constant pressure,"463.9 K, 4000 kPa",389.85 ± 24 J/K/mol
same,molar heat capacity at constant pressure,"475.4 K, 4000 kPa",396.97 ± 26 J/K/mol
same,molar heat capacity at constant pressure,"486.6 K, 4000 kPa",419.73 ± 27 J/K/mol
same,molar heat capacity at constant pressure,"496 K, 4000 kPa",414.04 ± 27 J/K/mol
same,molar heat capacity at constant pressure,"504.1 K, 4000 kPa",432.54 ± 27 J/K/mol
same,molar heat capacity at constant pressure,"516.7 K, 4000 kPa",415.46 ± 27 J/K/mol
same,molar heat capacity at constant pressure,"528.9 K, 4000 kPa",424 ± 27 J/K/mol
same,molar heat capacity at constant pressure,"539.4 K, 4000 kPa",433.96 ± 27 J/K/mol
same,molar heat capacity at constant pressure,"551.9 K, 4000 kPa",453.88 ± 28 J/K/mol
same,molar heat capacity at constant pressure,"564.4 K, 4000 kPa",453.88 ± 28 J/K/mol
same,molar heat capacity at constant pressure,"574.2 K, 4000 kPa",470.95 ± 30 J/K/mol
same,molar heat capacity at constant pressure,"584.4 K, 4000 kPa",488.03 ± 31 J/K/mol
same,molar heat capacity at constant pressure,"595.2 K, 4000 kPa",507.95 ± 33 J/K/mol
same,molar heat capacity at constant pressure,"603.1 K, 4000 kPa",513.64 ± 33 J/K/mol
same,molar heat capacity at constant pressure,"608.6 K, 4000 kPa",486.6 ± 31 J/K/mol
same,molar heat capacity at constant pressure,"614.1 K, 4000 kPa",497.99 ± 31 J/K/mol
O [water],molar heat capacity at constant pressure,"305.9 K, 3000 kPa",77.29 ± 4.9 J/K/mol
same,molar heat capacity at constant pressure,"315.6 K, 3000 kPa",72.96 ± 4.7 J/K/mol
same,molar heat capacity at constant pressure,"325.4 K, 3000 kPa",73.14 ± 4.7 J/K/mol
same,molar heat capacity at constant pressure,"335.8 K, 3000 kPa",76.56 ± 4.9 J/K/mol
same,molar heat capacity at constant pressure,"345.8 K, 3000 kPa",74.58 ± 4.7 J/K/mol
same,molar heat capacity at constant pressure,"354 K, 3000 kPa",78.01 ± 5 J/K/mol
same,molar heat capacity at constant pressure,"366.2 K, 3000 kPa",74.22 ± 4.7 J/K/mol
same,molar heat capacity at constant pressure,"381.2 K, 3000 kPa",77.65 ± 5 J/K/mol
same,molar heat capacity at constant pressure,"394.4 K, 3000 kPa",74.58 ± 4.7 J/K/mol
same,molar heat capacity at constant pressure,"407.3 K, 3000 kPa",76.2 ± 4.9 J/K/mol
same,molar heat capacity at constant pressure,"419.9 K, 3000 kPa",76.38 ± 4.9 J/K/mol
same,molar heat capacity at constant pressure,"433.9 K, 3000 kPa",76.02 ± 4.9 J/K/mol
